One may read the IC50 as the concentration at which inhibition is half-maximal.

In assay [1] the target is DPP1 in HL-60 cells (Homo sapiens, UniProt P53634). In words: DPP1 Cell IC50 assay. The assay is classed as cell-based. On the set-up: host or cells: HL-60 cells. To be noted: 60 min pre-incubation, H-Gly-Phe-AFC substrate, average of n runs, read-out: Avg. IC50 (DPP1 Cell IC50 value ranges). The procedure, abridged: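 Intracellular DPP1 activity read as AFC fluorescence (Ex/Em 400/505 nm) after 30 min with H-Gly-Phe-AFC (500 μM stock), following 60 min compound pre-incubation at 37° C with HL-60 cells at 5×10^5 live cells per mL in PBS. IC50 by 4-parameter fit against DMSO-only controls.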
DPP1 in HL-60 cells, sequence (P53634 25-463): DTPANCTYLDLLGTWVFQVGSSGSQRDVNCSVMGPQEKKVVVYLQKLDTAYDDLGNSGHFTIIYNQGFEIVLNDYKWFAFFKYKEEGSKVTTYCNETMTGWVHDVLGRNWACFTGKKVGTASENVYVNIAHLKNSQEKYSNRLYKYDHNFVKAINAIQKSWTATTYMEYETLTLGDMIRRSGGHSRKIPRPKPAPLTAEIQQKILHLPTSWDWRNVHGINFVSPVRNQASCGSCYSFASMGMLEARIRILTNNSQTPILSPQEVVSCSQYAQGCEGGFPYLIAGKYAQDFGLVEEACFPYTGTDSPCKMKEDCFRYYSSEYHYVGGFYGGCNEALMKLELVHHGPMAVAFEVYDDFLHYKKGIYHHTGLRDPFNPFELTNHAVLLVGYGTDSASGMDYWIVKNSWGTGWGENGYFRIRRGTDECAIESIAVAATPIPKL

For assay [2], the target named is T1, active mouse DPP1 enzyme (Mus musculus, UniProt P97821).
T1 construct: Each subunit is composed of an N-terminal fragment, a heavy chain and a light chain; purchased R&D Systems
T1 sequence (P97821 25-134 limits assumed): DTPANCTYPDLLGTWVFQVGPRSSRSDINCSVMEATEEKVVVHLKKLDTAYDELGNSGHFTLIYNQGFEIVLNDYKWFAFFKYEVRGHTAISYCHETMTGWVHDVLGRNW
T1 sequence (P97821 231-393 limits assumed): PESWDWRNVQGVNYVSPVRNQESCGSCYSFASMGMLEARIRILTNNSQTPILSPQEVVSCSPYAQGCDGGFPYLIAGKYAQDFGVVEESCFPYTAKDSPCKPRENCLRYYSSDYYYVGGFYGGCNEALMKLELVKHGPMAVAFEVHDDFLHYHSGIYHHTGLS
T1 sequence (P97821 394-462 limits assumed): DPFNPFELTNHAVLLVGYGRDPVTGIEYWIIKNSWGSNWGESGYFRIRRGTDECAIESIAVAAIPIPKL
The experiment in a line: Mouse DPP1 Enzyme IC50 Assay. In kind it is biochemical. To be noted: active mouse DPP1 enzyme, H-Gly-Arg-AMC substrate, 10 minutes pre-incubation at 37° C., pH 5.5; average of n runs; read-out: Avg. IC50 (Mouse DPP1 enzyme IC50 value ranges). How it is done: Example 96: Mouse DPP1 Enzyme IC50 Assay
Test articles were applied to active mouse DPP1 enzyme (R&D Systems; Minneapolis, MN) in Assay Buffer (50 mM MES pH 5.5, 50 mM NaCl, 5 mM DTT) in a total reaction volume of 125 μL. 25 μL of compound in Assay Buffer plus […] was first added to 50 μL of active mouse DPP1 enzyme at a concentration of 62.5 pg/μL and allowed to pre-incubate for 10 minutes at 37° C. after which 50 μL of […] H-Gly-Arg-AMC substrate (Bachem; St. Torrance, CA) was added, giving final substrate concentration of 400 µM and a final DMSO concentration of […]. Substrate cleavage was measured for 90 minutes at 37° C., with fluorescence at Excitation/Emission 350/450 nm measured every 5 minutes. DPP1 concentration was interpolated based on its activity relative to a standard curve of recombinant active mouse DPP enzyme. IC50 values for each compound were calculated via the XLFit (IDBS Version 5.3.1.3) Add-On to Microsoft Excel using the four parameter fit equation y=(A+((B−A)/(1+((C/x)^D)))), which appears as equation number 205 (4 Parameter Logistic Model or Sigmoidal Dose-Response Model) in XLFit. Default constraints were used for each Parameter. IC50 was defined as the compound concentration at which 50% of enzyme activity was inhibited when compared to the no-compound control.
In Table 2, *** represent average IC50≤5 nM, ** represents average IC50 in the range of 5-20 nM, and * represents average IC50 in the range of ≥20 nM, where the designations were made solely based on the average value without taking into account of the standard deviations.

For assay [3], the target named is human DPP1 enzyme (Homo sapiens, UniProt P53634). In words: Human DPP1 Enzyme IC50 Assay. The assay is classed as biochemical. On the set-up: was first proteolytically processed into its mature form using recombinant human cathepsin L; purchased R&D Systems. To be noted: activated recombinant human DPP1, 400 μM H-Gly-Arg-AMC, 10 minutes pre-incubation at 37° C., pH 6.0; average of n runs; read-out: Avg. IC50 (Human DPP1 enzyme IC50 value ranges). The procedure, abridged: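 IC50 came from a four-parameter fit of activity relative to no-compound control, with fluorescence (Ex 350/Em 450 nm) read every 5 min for 90 min at 37 °C using 400 μM final H-Gly-Arg-AMC. Cathepsin L-matured human recombinant DPP1 was preincubated 10 min with compound at pH 6.0 (MES, DTT, 1% DMSO).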
human DPP1 enzyme, sequence (P53634 25-134 limits assumed): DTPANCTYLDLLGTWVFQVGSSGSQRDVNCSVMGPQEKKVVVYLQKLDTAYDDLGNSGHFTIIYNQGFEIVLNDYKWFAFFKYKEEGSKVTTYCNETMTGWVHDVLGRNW
human DPP1 enzyme, sequence (P53634 231-394 limits assumed): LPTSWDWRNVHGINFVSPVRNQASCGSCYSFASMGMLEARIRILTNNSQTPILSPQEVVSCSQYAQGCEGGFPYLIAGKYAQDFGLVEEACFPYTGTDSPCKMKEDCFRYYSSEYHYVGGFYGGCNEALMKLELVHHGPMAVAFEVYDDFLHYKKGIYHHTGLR
human DPP1 enzyme, sequence (P53634 395-463 limits assumed): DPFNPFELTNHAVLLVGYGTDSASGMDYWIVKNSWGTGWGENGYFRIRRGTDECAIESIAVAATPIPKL

Structures are written as SMILES. Several values for one entry are separate records, joined by “and”; a condition that tells them apart may be missing. Identical values can stand only once.

With `Cc1nc(-c2ccc(C[C@@H](C#N)NC(=O)[C@@H]3CNCCCO3)cc2)sc1C#N` [Compound 10, (2S)—N-[(1S)-1-cyano-2-[4-(5-cyano-4-methyl-1,3-thiazol-2-yl)phenyl]ethyl]-1,4-oxazepane-2-carboxamide], the IC50 was more than 0.0025 µM in assay [1], more than 0.02 µM in assay [2] and more than 0.015 µM in assay [3].

`Cc1csc(-c2ccc(C[C@@H](C#N)NC(=O)[C@@H]3CNCCCO3)cc2)n1` [Compound 11, (2S)—N-[(1S)-1-cyano-2-[4-(4-methyl-1,3-thiazol-2-yl)phenyl]ethyl]-1,4-oxazepane-2-carboxamide]: the figures for the IC50 in assay [1], in assay [2] and in assay [3] were more than 0.0025 µM, more than 0.02 µM and more than 0.015 µM, respectively.

Turning to `N#C[C@H](Cc1ccc(-c2ccc(C(F)(F)F)cc2)cc1)NC(=O)[C@@H]1CNCCCO1` [Compound 12, (2S)—N-[(1S)-1-cyano-2-[4′-(trifluoromethyl)-[1,1′-biphenyl]-4-yl]ethyl]-1,4-oxazepane-2-carboxamide], the IC50 is more than 0.0025 µM in assay [1], more than 0.02 µM in assay [2] and more than 0.015 µM in assay [3].

As for `CN1CCC2(CC1)OC(=O)c1ccc(-c3ccc(C[C@@H](C#N)NC(=O)[C@@H]4CNCCCO4)cc3)cc12` [Compound 14, (2S)—N-[(1S)-1-cyano-2-(4-{1′-methyl-3-oxospiro[2-benzofuran-1,4′-piperidin]-6-yl}phenyl)ethyl]-1,4-oxazepane-2-carboxamide], the IC50 in assay [1] is more than 0.0025 µM; in assay [2], 0.005 to 0.02 µM; in assay [3] it was 0.005 to 0.015 µM.

Turning to `CN1CCN(S(=O)(=O)c2ccc(-c3ccc(C[C@@H](C#N)NC(=O)[C@@H]4CNCCCO4)cc3)cc2)CC1` [Compound 20, (2S)—N-[(1S)-1-cyano-2-[4′-(4-methylpiperazin-1-ylsulfonyl)-[1,1′-biphenyl]-4-yl]ethyl]-1,4-oxazepane-2-carboxamide], the results for the half-maximal inhibitory concentration (IC50) in assay [1], in assay [2] and in assay [3] were more than 0.0025 µM, more than 0.02 µM and more than 0.015 µM, respectively.

Consider `CN1CCN(S(=O)(=O)c2ccc(-c3ccc(C[C@@H](C#N)NC(=O)[C@@H]4CNCCCO4)c(F)c3)cc2)CC1` [Compound 21, (2S)—N-[(1S)-1-cyano-2-[3-fluoro-4′-(4-methylpiperazin-1-ylsulfonyl)-[1,1′-biphenyl]-4-yl]ethyl]-1,4-oxazepane-2-carboxamide], for which the IC50 was more than 0.0025 µM in assay [1], more than 0.02 µM in assay [2] and more than 0.015 µM in assay [3].

Consider `CN1CCC2(CCc3cc(-c4ccc(C[C@@H](C#N)NC(=O)[C@@H]5CNCCCO5)cc4)ccc32)CC1` [Compound 26, (2S)—N-[(1S)-1-cyano-2-(4-{1′-methyl-2,3-dihydrospiro[indene-1,4′-piperidin]-5-yl}phenyl)ethyl]-1,4-oxazepane-2-carboxamide], for which the half-maximal inhibitory concentration (IC50) in assay [1] is more than 0.0025 µM; in assay [2], more than 0.02 µM; in assay [3] it was more than 0.015 µM.

On to `CN1C(=O)C2(CCCN(C3COC3)C2)c2cc(-c3ccc(C[C@@H](C#N)NC(=O)[C@@H]4CNCCCO4)cc3)ccc21` (stereo partly drawn) [Compound 28, (2S)—N-[(1S)-1-cyano-2-{4-[1-methyl-1′-(oxetan-3-yl)-2-oxospiro[indole-3,3′-piperidin]-5-yl]phenyl}ethyl]-1,4-oxazepane-2-carboxamide], for which the IC50 was more than 0.0025 µM in assay [1], more than 0.02 µM in assay [2] and more than 0.015 µM in assay [3].

On to `Cn1nc(F)c2ccc(-c3ccc(C[C@@H](C#N)NC(=O)[C@@H]4CNCCCO4)cc3)cc21` [Compound A1, (S)—N—((S)-1-cyano-2-(4-(3-fluoro-1-methyl-1H-indazol-6-yl)phenyl)ethyl)-1,4-oxazepane-2-carboxamide], for which the IC50 was more than 0.0025 µM in assay [1], more than 0.02 µM in assay [2] and more than 0.015 µM in assay [3].

For `N#C[C@H](Cc1ccc(-c2ccc3c(c2)CCNC3=O)cc1)NC(=O)[C@@H]1CNCCCO1` [Compound A2, (2S)—N-[(1S)-1-cyano-2-[4-(1-oxo-3,4-dihydro-2H-isoquinolin-6-yl)phenyl]ethyl]-1,4-oxazepane-2-carboxamide], the half-maximal inhibitory concentration (IC50) in assay [1] was more than 0.0025 µM; in assay [2], more than 0.02 µM; in assay [3], more than 0.015 µM.

Take `CN1CCC(n2ncc3ccc(-c4ccc(C[C@@H](C#N)NC(=O)[C@@H]5CNCCCO5)c(F)c4)cc32)CC1` [Compound A3, (2S)—N-[(1S)-1-cyano-2-{2-fluoro-4-[1-(1-methylpiperidin-4-yl)indazol-6-yl]phenyl}ethyl]-1,4-oxazepane-2-carboxamide]: the figures for the 50% inhibitory concentration (IC50) in assay [1], in assay [2] and in assay [3] were more than 0.0025 µM, more than 0.02 µM and 0.005 to 0.015 µM, respectively.

For the compound `N#C[C@H](Cc1ccc(-c2ccc3c(c2)CCCS3)cc1)NC(=O)[C@@H]1CNCCCO1` [Compound A5, (2S)—N-[(1S)-1-cyano-2-[4-(3,4-dihydro-2H-1-benzothiopyran-6-yl)phenyl]ethyl]-1,4-oxazepane-2-carboxamide], the IC50 is more than 0.0025 µM in assay [1], more than 0.02 µM in assay [2] and more than 0.015 µM in assay [3].

For `Cc1cn2cc(-c3ccc(C[C@@H](C#N)NC(=O)[C@@H]4CNCCCO4)cc3)cc2c(C)n1` [Compound A8, (2S)—N-[(1S)-1-cyano-2-(4-{1,3-dimethylpyrrolo[1,2-a]pyrazin-7-yl}phenyl)ethyl]-1,4-oxazepane-2-carboxamide], the IC50 in assay [1] was more than 0.0025 µM; in assay [2] it was more than 0.02 µM; in assay [3], more than 0.015 µM.

For `N#C[C@H](Cc1ccc(-c2ccc3c(n2)CCCN3)cc1)NC(=O)[C@@H]1CNCCCO1` [Compound A10, (2S)—N-[(1S)-1-cyano-2-[4-(5,6,7,8-tetrahydro-1,5-naphthyridin-2-yl)phenyl]ethyl]-1,4-oxazepane-2-carboxamide], the IC50 in assay [1] was more than 0.0025 µM; in assay [2], more than 0.02 µM; in assay [3] it was more than 0.015 µM.

Consider `CN1C(=O)CCc2cc(-c3ccc(C[C@@H](C#N)NC(=O)[C@@H]4CNCCCO4)cc3)ccc21` [Compound A21, (2S)—N-[(1S)-1-cyano-2-[4-(1-methyl-2-oxo-3,4-dihydroquinolin-6-yl)phenyl]ethyl]-1,4-oxazepane-2-carboxamide], for which the IC50 in assay [1] was more than 0.0025 µM; in assay [2], more than 0.02 µM; in assay [3], more than 0.015 µM.

Take `Cc1cn2cc(-c3ccc(C[C@@H](C#N)NC(=O)[C@@H]4CNCCCCO4)cc3)cc2c(C)n1` [Compound A27, (2S)—N-[(1S)-1-cyano-2-(4-{1,3-dimethylpyrrolo[1,2-a]pyrazin-7-yl}phenyl)ethyl]-1,4-oxazocane-2-carboxamide]: the IC50 in assay [1] is > 0.0025 µM and 0.001 to 0.0025 µM; in assay [2], more than 0.02 µM; in assay [3], more than 0.015 µM.

With `Cc1cn2cc(-c3ccc(C[C@@H](C#N)NC(=O)[C@@H]4CNCCCCO4)c(F)c3)cc2c(C)n1` [Compound A28, (2S)—N-[(1S)-1-cyano-2-(4-{1,3-dimethylpyrrolo[1,2-a]pyrazin-7-yl}-2-fluorophenyl)ethyl]-1,4-oxazocane-2-carboxamide], the IC50 in assay [1] was 0.001 to 0.0025 µM; in assay [2] it was more than 0.02 µM; in assay [3] it was more than 0.015 µM.

Turning to `CO[C@@H]1CCNC[C@@H](C(=O)N[C@H](C#N)Cc2ccc(-c3cc4c(C)nc(C)cn4c3)cc2F)OC1` [Compound A47, (2S,7R)—N-[(1S)-1-cyano-2-(4-{1,3-dimethylpyrrolo[1,2-a]pyrazin-7-yl}-2-fluorophenyl)ethyl]-7-methoxy-1,4-oxazocane-2-carboxamide], the results for the IC50 in assay [1], in assay [2] and in assay [3] were 0.001 to 0.0025 µM, less than 0.005 µM and less than 0.005 µM, respectively.

(Values after patent US20260008760A1, “DIPEPTIDYL PEPTIDASE 1 INHIBITORS AND USES THEREOF” (Insmed Incorporated, priority 2024, published 2026).)
